Earlier results as cited in patent US6884429B2, “Medical devices incorporating deuterated rapamycin for controlled delivery thereof” (Isotechnika International Inc., priority 1997, dated 2005).

Conditions: plasma and low-, and neuteral -pH buffers at 37° C.

Question: With `CO[C@H]1C[C@@H]2CC[C@@H](C)[C@@](O)(O2)C(=O)C(=O)N2CCCC[C@H]2C(=O)O[C@H]([C@H](C)C[C@@H]2CC[C@@H](O)[C@H](OC)C2)CC(=O)[C@H](C)/C=C(\C)[C@@H](O)[C@@H](OC)C(=O)[C@H](C)C[C@H](C)/C=C/C=C/C=C/1C` [Rapamycin] as the compound, how does the “half-life of degradation in solution” value read?
Answer: < 10 h
